Measured values: ChEMBL document CHEMBL1146131, “3D-QSAR studies of farnesyltransferase inhibitors: a comparative molecular field analysis approach” (Bioorg Med Chem Lett, 2006)
pIC50: −log10 of the molar value.

Target: Protein farnesyltransferase (Homo sapiens, UniProt P49354+P49356)
Test: Inhibition of FTase
Assay type: protein-complex assay

SMILES | pIC50
COCc1cccc(-c2cc(C#N)ccc2COC(c2ccc(C#N)cc2)c2cncn2C)c1 (stereo not given) | 6.72
Cc1ncc(C(OCc2ccc(C#N)cc2-c2ccc3c(c2)OCO3)c2ccc(C#N)cc2)n1C (stereo not given) | 5.79
Cn1cncc1C(OCc1ccc(C#N)cc1C(=O)Nc1ccccc1)c1ccc(C#N)cc1 (stereo not given) | 5.65
COc1cccc(-c2cc(C(=O)O)ccc2COC(c2ccc(C#N)cc2)c2cncn2C)c1 (stereo not given) | 4.08
COc1cccc(-c2cc(C#N)ccc2COC(c2ccc(Cl)cc2)c2cncn2C)c1 (stereo not given) | 5.69
Cn1cncc1C(OCc1ccc(C#N)cc1C(=O)Nc1cccc(Cl)c1)c1ccc(C#N)cc1 (stereo not given) | 6.12
Cc1ccc(-c2cc(C#N)ccc2COC(c2ccc(C#N)cc2)c2cncn2C)cc1 (stereo not given) | 5.95
COC(=O)c1ccc(COC(c2ccc(C#N)cc2)c2cncn2C)c(-c2cccc(OC)c2)c1 (stereo not given) | 4.88
COc1ccc(-c2cc(C#N)ccc2COC(c2ccc(C#N)cc2)c2cncn2C)cc1 (stereo not given) | 6.01
COc1cccc(-c2cc(N)ccc2COC(c2ccc(C#N)cc2)c2cncn2C)c1 (stereo not given) | 4.39
Cn1cncc1C(OCc1ccc(C#N)cc1-c1cc(F)cc(F)c1)c1ccc(C#N)cc1 (stereo not given) | 6.00
Cn1cncc1C(OCc1ccc(C#N)cc1-c1cccc2cccnc12)c1ccc(C#N)cc1 (stereo not given) | 5.28
COc1cccc(-c2cc(C#N)ccc2COC(c2ccc(C#N)c(Cl)c2)c2cncn2C)c1 (stereo not given) | 6.01
Cn1cncc1C(OCc1ccc(Cl)cc1-c1ccc(Cl)cc1)c1ccc(C#N)cc1 (stereo not given) | 5.31
N#Cc1ccc(C(OCc2ccc(C#N)cc2-c2cccc(Cl)c2)c2cncs2)cc1 (stereo not given) | 5.39
Cc1ccc(S(=O)(=O)Nc2cc(C#N)ccc2COC(c2ccc(C#N)cc2)c2cncn2C)cc1 (stereo not given) | 6.00
COc1cccc(-c2cc([N+](=O)[O-])ccc2COC(c2ccc(C#N)cc2)c2cncn2C)c1 (stereo not given) | 5.95
Cn1cncc1C(OCc1ccc(C#N)cc1-c1cccc(Cl)c1)c1ccc(C#N)cc1F (stereo not given) | 6.11
CCOc1cccc(-c2cc(Cl)ccc2COC(c2ccc(C#N)cc2)c2cncn2C)c1 (stereo not given) | 5.95
Cc1ncc(C(OCc2ccc(C#N)cc2-c2cccc(Cl)c2)c2ccc(C#N)cc2)n1C (stereo not given) | 5.69
Cn1cncc1C(OCc1ccc(C#N)cc1NCc1cc(F)cc(F)c1)c1ccc(C#N)cc1 (stereo not given) | 6.21
Cn1cncc1C(OCc1ccc(C#N)cc1-c1cccc(Cl)c1)c1ccc(C(F)(F)F)cc1 (stereo not given) | 5.95
Cn1cncc1C(OCc1ccc(C#N)cc1NS(=O)(=O)c1cccs1)c1ccc(C#N)cc1 (stereo not given) | 6.05
COc1cccc(-c2cc(Cl)ccc2COC(c2ccc(C#N)cc2)c2cncn2C)c1 (stereo not given) | 6.04
Cn1cncc1C(OCc1ccc(C#N)cc1-c1cccc(OC(F)(F)F)c1)c1ccc(C#N)cc1 (stereo not given) | 6.07
Cn1cncc1C(OCc1ccc(C#N)cc1-c1ccc2c(c1)OC(F)(F)O2)c1ccc(C#N)cc1 (stereo not given) | 5.95
COc1cccc(-c2cc(NS(C)(=O)=O)ccc2COC(c2ccc(C#N)cc2)c2cncn2C)c1 (stereo not given) | 4.45

Continued by rising pIC50, values first:

pIC50 | SMILES
4.82 | N#Cc1ccc(C(OCc2ccc(C#N)cc2-c2ccc3c(c2)OCO3)c2cnccc2Cl)cc1 (stereo not given)
4.95 | COCC(=O)Nc1ccc(COC(c2ccc(C#N)cc2)c2cncn2C)c(-c2cccc(OC)c2)c1 (stereo not given)
5.05 | Cn1cncc1C(OCc1ccc(Cl)cc1-c1ccccc1Cl)c1ccc(C#N)cc1 (stereo not given)
5.30 | Cn1cncc1C(OCc1ccc(C#N)cc1NC(=O)c1ccccc1)c1ccc(C#N)cc1 (stereo not given)
5.58 | Cn1cncc1C(OCc1ccc(C#N)cc1NS(=O)(=O)c1cccc2ccccc12)c1ccc(C#N)cc1 (stereo not given)
5.79 | COc1cccc(-c2cc(C=O)ccc2COC(c2ccc(C#N)cc2)c2cncn2C)c1 (stereo not given)
5.92 | CCOc1ccc(-c2cc(C#N)ccc2COC(c2ccc(C#N)cc2)c2cncn2C)cc1 (stereo not given)
6.02 | Cn1cncc1C(OCc1ccc(C#N)cc1-c1cccc2ccccc12)c1ccc(C#N)cc1 (stereo not given)
6.06 | Cn1cncc1C(OCc1ccc(C#N)cc1-c1ccc2c(c1)OCO2)c1ccc(C#N)cc1 (stereo not given)
6.06 | Cn1cncc1C(OCc1ccc(C#N)cc1-c1cccc(Cl)c1)c1ccc(C#N)cc1 (stereo not given)
6.09 | Cn1cncc1C(OCc1ccc(Cl)cc1-c1cccc(Cl)c1)c1ccc(C#N)cc1 (stereo not given)
6.16 | CCOc1cccc(-c2cc(C#N)ccc2COC(c2ccc(C#N)cc2)c2cncn2C)c1 (stereo not given)
6.35 | Cn1cncc1C(OCc1ccc(C#N)cc1-c1cccc(Cl)c1)c1ccc(C#N)c(F)c1 (stereo not given)
